{
  "source": "ChEMBL document CHEMBL1681734",
  "about": "“hNK2 receptor antagonists. The use of intramolecular hydrogen bonding to increase solubility and membrane permeability” (Bioorg Med Chem Lett, 2011)",
  "key": {"[1]": {"test": "Permeability across apical to basolateral side in human Caco2 cells at 100 uM", "type": "ADME, cell-based", "details": "Caco-2, read-out: permeability"}, "Substance-K receptor": {"molecular_target": "T1, Substance-K receptor (Homo sapiens, UniProt P21452)", "T1 sequence (P21452 whole entry)": "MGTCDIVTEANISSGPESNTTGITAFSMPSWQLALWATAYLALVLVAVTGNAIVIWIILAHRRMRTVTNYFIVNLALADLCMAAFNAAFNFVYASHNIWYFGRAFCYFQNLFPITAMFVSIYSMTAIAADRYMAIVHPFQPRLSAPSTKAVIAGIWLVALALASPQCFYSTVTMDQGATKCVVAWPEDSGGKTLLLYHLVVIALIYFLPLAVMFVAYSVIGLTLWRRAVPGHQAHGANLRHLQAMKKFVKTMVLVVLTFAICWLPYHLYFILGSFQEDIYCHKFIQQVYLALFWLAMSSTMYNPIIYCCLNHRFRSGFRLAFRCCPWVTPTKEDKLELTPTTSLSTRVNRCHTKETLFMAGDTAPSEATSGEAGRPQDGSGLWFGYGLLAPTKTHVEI", "test": "Displacement of [125I]neurokinin A from human NK2 receptor after 30 mins"}, "[2]": {"test": "Aqueous solubility of the compound at pH 6.4", "type": "physicochemical"}, "[3]": {"test": "Membrane permeability by PAMPA assay", "type": "ADME", "details": "read-out: permeability"}},
  "data": [
    {"smiles": "O=C(NC1(C(=O)N[C@@H](Cc2ccccc2)C(=O)NCC2CCN(CC3CCOCC3)CC2)CCCC1)c1ccc(-n2cccc2)cc1", "values": [
      {"measurement": "Papp A→B at 100 µM", "setting": "[1]", "value": "< 1", "unit": "×10⁻⁶ cm/s"},
      {"measurement": "Ki", "setting": "Substance-K receptor", "value": 0.234, "unit": "nM"},
      {"measurement": "solubility", "setting": "[2]", "value": 1450, "unit": "µg/mL"}
    ]},
    {"smiles": "O=C(NC1(C(=O)N[C@@H](Cc2ccccc2)C(=O)NCC2CCN(CC3CCOCC3)CC2)CCCC1)c1ccc(-n2cccc2)cc1Cl", "values": [
      {"measurement": "Papp A→B at 100 µM", "setting": "[1]", "value": 4.21, "unit": "×10⁻⁶ cm/s"},
      {"measurement": "Ki", "setting": "Substance-K receptor", "value": 3.98, "unit": "nM"},
      {"measurement": "solubility", "setting": "[2]", "value": "> 2820", "unit": "µg/mL"},
      {"measurement": "Papp", "setting": "[3]", "value": 0.16, "unit": "×10⁻⁶ cm/s"}
    ]},
    {"smiles": "O=C(NC1(C(=O)N[C@@H](Cc2ccccc2)C(=O)NCC2CCN(CC3CCOCC3)CC2)CCCC1)c1ccc(-n2cccc2)cc1F", "values": [
      {"measurement": "Papp A→B at 100 µM", "setting": "[1]", "value": 13.8, "unit": "×10⁻⁶ cm/s"},
      {"measurement": "Ki", "setting": "Substance-K receptor", "value": 3.24, "unit": "nM"},
      {"measurement": "solubility", "setting": "[2]", "value": "> 2860", "unit": "µg/mL"},
      {"measurement": "Papp", "setting": "[3]", "value": 0.66, "unit": "×10⁻⁶ cm/s"}
    ]},
    {"smiles": "CCCCc1ccc(C(=O)NC2(C(=O)N[C@@H](Cc3ccccc3)C(=O)NCC3CCN(CC4CCOCC4)CC3)CCCC2)cc1", "values": [
      {"measurement": "solubility", "setting": "[2]", "value": "> 2410", "unit": "µg/mL"}
    ]},
    {"smiles": "CCCCc1ccc(C(=O)NC2(C(=O)N[C@@H](Cc3ccccc3)C(=O)NCC3CCN(CC4CCOCC4)CC3)CCCC2)nc1", "values": [
      {"measurement": "solubility", "setting": "[2]", "value": "> 6600", "unit": "µg/mL"}
    ]},
    {"smiles": "O=C(NC1(C(=O)N[C@H](CCCN2CCN(CC3CCOCC3)CC2)Cc2ccccc2)CCCC1)c1ccc2ccccc2c1", "values": [
      {"measurement": "Papp A→B at 100 µM", "setting": "[1]", "value": 14.7, "unit": "×10⁻⁶ cm/s"},
      {"measurement": "Ki", "setting": "Substance-K receptor", "value": 0.324, "unit": "nM"},
      {"measurement": "solubility", "setting": "[2]", "value": 1570, "unit": "µg/mL"},
      {"measurement": "Papp", "setting": "[3]", "value": 5.96, "unit": "×10⁻⁶ cm/s"}
    ]},
    {"smiles": "O=C(NC1(C(=O)N[C@H](CCCN2CCN(CC3CCOCC3)CC2)Cc2ccccc2)CCCC1)c1cc2ccccc2cn1", "values": [
      {"measurement": "Papp A→B at 100 µM", "setting": "[1]", "value": 25.2, "unit": "×10⁻⁶ cm/s"},
      {"measurement": "Ki", "setting": "Substance-K receptor", "value": 2.04, "unit": "nM"},
      {"measurement": "solubility", "setting": "[2]", "value": 2800, "unit": "µg/mL"},
      {"measurement": "Papp", "setting": "[3]", "value": 15.5, "unit": "×10⁻⁶ cm/s"}
    ]},
    {"smiles": "COc1cc2ccccc2cc1C(=O)NC1(C(=O)N[C@H](CCCN2CCN(CC3CCOCC3)CC2)Cc2ccccc2)CCCC1", "values": [
      {"measurement": "Papp A→B at 100 µM", "setting": "[1]", "value": 13.6, "unit": "×10⁻⁶ cm/s"},
      {"measurement": "Ki", "setting": "Substance-K receptor", "value": 8.32, "unit": "nM"},
      {"measurement": "solubility", "setting": "[2]", "value": 3070, "unit": "µg/mL"},
      {"measurement": "Papp", "setting": "[3]", "value": 11.9, "unit": "×10⁻⁶ cm/s"}
    ]},
    {"smiles": "COc1c(C(=O)NC2(C(=O)N[C@H](CCCN3CCN(CC4CCOCC4)CC3)Cc3ccccc3)CCCC2)ccc2ccccc12", "values": [
      {"measurement": "Papp A→B at 100 µM", "setting": "[1]", "value": 11.7, "unit": "×10⁻⁶ cm/s"},
      {"measurement": "Ki", "setting": "Substance-K receptor", "value": 44.7, "unit": "nM"},
      {"measurement": "solubility", "setting": "[2]", "value": 1910, "unit": "µg/mL"},
      {"measurement": "Papp", "setting": "[3]", "value": 6.77, "unit": "×10⁻⁶ cm/s"}
    ]}
  ]
}
